Measured values published in PubChem BioAssay (NCI).
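Briefly, cells in 96-well plates were exposed to five compound concentrations for 48 h, and endpoints were estimated by linear interpolation. Here, GI50 denotes the concentration required for 50% inhibition of growth. TGI denotes the concentration required for complete inhibition of growth.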

Key:
Assay in all cases: growth of human tumour cells (NCI), 48 h
NCI/ADR-RES ovarian = tested on: NCI/ADR-RES ovarian
SN12C renal = tested on: SN12C renal
EKVX NSCLC = tested on: EKVX NSCLC
NCI-H23 lung = tested on: NCI-H23 lung
K-562 leukemia = tested on: K-562 leukemia
SNB-75 CNS = tested on: SNB-75 CNS
MALME-3M melanoma = tested on: MALME-3M melanoma
UACC-257 melanoma = tested on: UACC-257 melanoma
PC-3 prostate = tested on: PC-3 prostate
BT-549 breast = tested on: BT-549 breast
M14 melanoma = tested on: M14 melanoma
SNB-19 CNS = tested on: SNB-19 CNS
COLO 205 colon = tested on: COLO 205 colon
SR leukemia = tested on: SR leukemia
RPMI-8226 leukemia = tested on: RPMI-8226 leukemia
OVCAR-5 ovarian = tested on: OVCAR-5 ovarian
T-47D breast = tested on: T-47D breast
KM12 colon = tested on: KM12 colon
CCRF-CEM leukemia = tested on: CCRF-CEM leukemia
NCI-H522 lung = tested on: NCI-H522 lung
CAKI-1 renal = tested on: CAKI-1 renal
MDA-MB-231 breast = tested on: MDA-MB-231 breast
UACC-62 melanoma = tested on: UACC-62 melanoma
RXF 393 renal = tested on: RXF 393 renal
SK-MEL-28 melanoma = tested on: SK-MEL-28 melanoma
TK-10 renal = tested on: TK-10 renal
LOX IMVI melanoma = tested on: LOX IMVI melanoma
SF-539 CNS = tested on: SF-539 CNS
786-0 renal = tested on: 786-0 renal
NCI-H460 lung = tested on: NCI-H460 lung
MCF7 breast = tested on: MCF7 breast
DU-145 prostate = tested on: DU-145 prostate
UO-31 renal = tested on: UO-31 renal
HT29 colon = tested on: HT29 colon
OVCAR-8 ovarian = tested on: OVCAR-8 ovarian
ACHN renal = tested on: ACHN renal
HL-60(TB) leukemia = tested on: HL-60(TB) leukemia
IGROV1 ovarian = tested on: IGROV1 ovarian
OVCAR-4 ovarian = tested on: OVCAR-4 ovarian
MOLT-4 leukemia = tested on: MOLT-4 leukemia
HOP-62 NSCLC = tested on: HOP-62 NSCLC
HOP-92 NSCLC = tested on: HOP-92 NSCLC
HCT-15 colon = tested on: HCT-15 colon
A549 NSCLC = tested on: A549 NSCLC
SK-MEL-2 melanoma = tested on: SK-MEL-2 melanoma
HCC-2998 colon = tested on: HCC-2998 colon
HS 578T breast = tested on: HS 578T breast
A498 renal = tested on: A498 renal
SK-OV-3 ovarian = tested on: SK-OV-3 ovarian
SF-268 CNS = tested on: SF-268 CNS
U251 CNS = tested on: U251 CNS
HCT-116 colon = tested on: HCT-116 colon
SF-295 CNS = tested on: SF-295 CNS
SW-620 colon = tested on: SW-620 colon
SK-MEL-5 melanoma = tested on: SK-MEL-5 melanoma
NCI-H226 lung = tested on: NCI-H226 lung
MDA-MB-435 = tested on: MDA-MB-435

## N#Cc1c(NC(=O)c2cccc(C(F)(F)F)c2F)sc2c1CCC(=O)C2
NCI/ADR-RES ovarian
  GI50: 0.345 µM
  TGI: 1.82 µM
SN12C renal
  GI50: 0.326 µM
  TGI: 2.22 µM
EKVX NSCLC
  GI50: 0.563 µM
  TGI: 4.4 µM
NCI-H23 lung
  GI50: 0.337 µM
  TGI: 2.07 µM
K-562 leukemia
  GI50: 0.112 µM
  TGI: > 100 µM
SNB-75 CNS
  GI50: 0.459 µM
  TGI: 3.55 µM
MALME-3M melanoma
  GI50: 0.266 µM
  TGI: 0.694 µM
UACC-257 melanoma
  GI50: 0.624 µM
  TGI: 3.18 µM
PC-3 prostate
  GI50: 0.114 µM
  TGI: 1.48 µM
BT-549 breast
  GI50: 0.308 µM
  TGI: 1.43 µM
M14 melanoma
  GI50: 0.378 µM
  TGI: 2.1 µM
SNB-19 CNS
  GI50: 0.41 µM
  TGI: 15.6 µM
COLO 205 colon
  GI50: 0.21 µM
  TGI: 0.437 µM
SR leukemia
  GI50: 0.0761 µM
  TGI: > 100 µM
RPMI-8226 leukemia
  GI50: 0.0664 µM
OVCAR-5 ovarian
  GI50: 0.392 µM
  TGI: 1.78 µM
T-47D breast
  GI50: 0.151 µM
  TGI: 1.65 µM
KM12 colon
  GI50: 0.464 µM
  TGI: 1.98 µM
CCRF-CEM leukemia
  GI50: 0.19 µM
  TGI: > 100 µM
NCI-H522 lung
  GI50: 0.194 µM
  TGI: 0.719 µM
CAKI-1 renal
  GI50: 0.221 µM
  TGI: 0.866 µM
MDA-MB-231 breast
  GI50: 0.356 µM
  TGI: 1.35 µM
UACC-62 melanoma
  GI50: 0.317 µM
  TGI: 1.33 µM
RXF 393 renal
  GI50: 0.221 µM
  TGI: 0.714 µM
SK-MEL-28 melanoma
  GI50: 0.475 µM
  TGI: 1.79 µM
TK-10 renal
  GI50: 0.33 µM
LOX IMVI melanoma
  GI50: 0.311 µM
  TGI: 1.18 µM
SF-539 CNS
  GI50: 0.244 µM
  TGI: 0.8 µM
786-0 renal
  GI50: 0.444 µM
  TGI: > 47.5 µM
NCI-H460 lung
  GI50: 0.549 µM
  TGI: > 38.9 µM
MCF7 breast
  GI50: 0.276 µM
  TGI: > 23 µM
DU-145 prostate
  GI50: 1.27 µM
  TGI: > 100 µM
UO-31 renal
  GI50: 0.22 µM
  TGI: 0.73 µM
HT29 colon
  GI50: 0.226 µM
  TGI: 1.31 µM
OVCAR-8 ovarian
  GI50: 0.356 µM
  TGI: > 100 µM
ACHN renal
  GI50: 0.296 µM
  TGI: 1.01 µM
HL-60(TB) leukemia
  GI50: 0.235 µM
  TGI: 10.9 µM
IGROV1 ovarian
  GI50: 0.49 µM
  TGI: 2.2 µM
OVCAR-4 ovarian
  GI50: 0.393 µM
  TGI: 1.73 µM
MOLT-4 leukemia
  GI50: 0.308 µM
  TGI: > 37.7 µM
HOP-62 NSCLC
  GI50: 0.782 µM
HOP-92 NSCLC
  GI50: 0.243 µM
  TGI: 0.679 µM
HCT-15 colon
  GI50: 0.246 µM
  TGI: 1.14 µM
A549 NSCLC
  GI50: 1.88 µM
  TGI: > 100 µM
SK-MEL-2 melanoma
  GI50: 2.15 µM
  TGI: 5.33 µM
HCC-2998 colon
  GI50: 0.588 µM
  TGI: 2.09 µM
HS 578T breast
  GI50: 0.357 µM
  TGI: 2.32 µM
A498 renal
  GI50: 2.19 µM
  TGI: 5.93 µM
SK-OV-3 ovarian
  GI50: 1.96 µM
  TGI: 6.37 µM
SF-268 CNS
  GI50: 0.408 µM
  TGI: > 100 µM
U251 CNS
  GI50: 0.356 µM
  TGI: 2.24 µM
HCT-116 colon
  GI50: 0.124 µM
  TGI: 1.26 µM
SF-295 CNS
  GI50: 0.515 µM
  TGI: 2.42 µM
SW-620 colon
  GI50: 0.225 µM
  TGI: 1.46 µM
SK-MEL-5 melanoma
  GI50: 0.372 µM
  TGI: 1.32 µM
NCI-H226 lung
  GI50: 0.487 µM
  TGI: 2.57 µM
MDA-MB-435
  GI50: 0.336 µM
  TGI: 1.4 µM

## CCOC(=O)c1c(NC(=O)c2cccc(C(F)(F)F)c2)sc2c(CN3CCN(C)CC3)c(O)ccc12
SN12C renal
  GI50: 1.67 µM
  TGI: 3.16 µM
EKVX NSCLC
  GI50: 1.69 µM
  TGI: 3.31 µM
NCI-H23 lung
  GI50: 1.76 µM
  TGI: 3.28 µM
MALME-3M melanoma
  GI50: 1.65 µM
  TGI: 3.15 µM
M14 melanoma
  GI50: 1.88 µM
  TGI: 3.53 µM
SNB-19 CNS
  GI50: 1.72 µM
  TGI: 3.31 µM
OVCAR-5 ovarian
  GI50: 1.5 µM
  TGI: 2.85 µM
KM12 colon
  GI50: 1.86 µM
  TGI: 3.4 µM
CCRF-CEM leukemia
  GI50: 1.51 µM
  TGI: 4.22 µM
MDA-MB-231 breast
  GI50: 1.65 µM
  TGI: 3.11 µM
UACC-62 melanoma
  GI50: 1.76 µM
  TGI: 3.27 µM
SK-MEL-28 melanoma
  GI50: 1.72 µM
  TGI: 3.15 µM
LOX IMVI melanoma
  GI50: 1.76 µM
  TGI: 3.31 µM
SF-539 CNS
  GI50: 1.62 µM
  TGI: 3.06 µM
MCF7 breast
  GI50: 1.51 µM
  TGI: 3.03 µM
UO-31 renal
  GI50: 1.52 µM
  TGI: 3 µM
ACHN renal
  GI50: 1.82 µM
  TGI: 3.31 µM
IGROV1 ovarian
  GI50: 1.7 µM
  TGI: 3.27 µM
HCT-15 colon
  GI50: 1.61 µM
  TGI: 3.13 µM
HCC-2998 colon
  GI50: 1.65 µM
  TGI: 3.37 µM
HS 578T breast
  GI50: 1.89 µM
  TGI: 4.51 µM
HCT-116 colon
  GI50: 1 µM
  TGI: 2.43 µM
SF-295 CNS
  GI50: 1.7 µM
  TGI: 3.25 µM
SK-MEL-5 melanoma
  GI50: 1.79 µM
  TGI: 3.4 µM
MDA-MB-435
  GI50: 1.69 µM
  TGI: 3.1 µM

## [Cl][Ru].c1ccc(-c2cc(-c3ccccn3)nc(-c3ccccn3)c2)cc1.c1ccc(-c2ccnc3c2ccc2c(-c4ccccc4)ccnc23)cc1
NCI/ADR-RES ovarian
  GI50: 31.1 µM
  TGI: > 100 µM
SN12C renal
  GI50: 0.266 µM
  TGI: 0.915 µM
EKVX NSCLC
  GI50: 0.352 µM
  TGI: 2.36 µM
K-562 leukemia
  GI50: 0.301 µM
  TGI: 4.66 µM
SNB-75 CNS
  GI50: 0.179 µM
  TGI: 0.829 µM
BT-549 breast
  GI50: 0.224 µM
  TGI: 0.869 µM
COLO 205 colon
  GI50: 0.182 µM
  TGI: 0.335 µM
SR leukemia
  TGI: 1.09 µM
RPMI-8226 leukemia
  GI50: 0.232 µM
  TGI: 0.727 µM
OVCAR-5 ovarian
  GI50: 0.396 µM
  TGI: 1.71 µM
T-47D breast
  GI50: 0.27 µM
  TGI: 1.07 µM
CCRF-CEM leukemia
  GI50: 0.415 µM
CAKI-1 renal
  GI50: 3.15 µM
  TGI: 26.6 µM
UACC-62 melanoma
  GI50: 0.292 µM
  TGI: 1.17 µM
SK-MEL-28 melanoma
  GI50: 0.418 µM
  TGI: 1.58 µM
TK-10 renal
  GI50: 1.6 µM
  TGI: 4.15 µM
NCI-H460 lung
  GI50: 0.351 µM
  TGI: 1.12 µM
DU-145 prostate
  GI50: 0.529 µM
UO-31 renal
  GI50: 2.62 µM
  TGI: > 45.8 µM
HT29 colon
  GI50: 0.333 µM
  TGI: 1.31 µM
ACHN renal
  GI50: 3.23 µM
  TGI: 25.7 µM
HL-60(TB) leukemia
  GI50: 0.252 µM
  TGI: 0.696 µM
OVCAR-4 ovarian
  GI50: 0.424 µM
  TGI: 2.5 µM
MOLT-4 leukemia
  GI50: 0.332 µM
  TGI: 1.62 µM
HOP-92 NSCLC
  GI50: 0.139 µM
  TGI: 0.543 µM
HCT-15 colon
  GI50: 2.08 µM
  TGI: 4.73 µM
HCC-2998 colon
  GI50: 0.356 µM
  TGI: 1.45 µM
HS 578T breast
  GI50: 0.275 µM
  TGI: 0.919 µM
A498 renal
  GI50: 1.93 µM
  TGI: 4.56 µM
SF-268 CNS
  GI50: 0.489 µM
SW-620 colon
  GI50: 0.451 µM
  TGI: 1.67 µM
SK-MEL-5 melanoma
  GI50: 0.577 µM
  TGI: 1.84 µM
MDA-MB-435
  GI50: 0.322 µM
  TGI: 1.01 µM
